Data as given in ChEMBL document CHEMBL1671662, “In vitro activities of telavancin and six comparator agents against anaerobic bacterial isolates” (2009).

Experiments:
[1] = test system: Bacteroides ovatus; assay: Antibacterial activity against Bacteroides ovatus by CLSI M11-A6 agar dilution method; type: functional
[2] = Antibacterial activity against Bifidobacterium infantis by CLSI M11-A6 agar dilution method; type: functional, Bifidobacterium longum subsp. infantis; settings: Bifidobacterium longum
[3] = test system: Holdemania filiformis; assay: Antibacterial activity against Holdemania filiformis by CLSI M11-A6 agar dilution method; type: functional
[4] = test system: Hoylesella oralis; assay: Antibacterial activity against Prevotella oralis by CLSI M11-A6 agar dilution method; type: functional
[5] = test system: Flavonifractor plautii; assay: Antibacterial activity against Clostridium orbiscindens by CLSI M11-A6 agar dilution method; type: functional
[6] = test system: Eggerthella lenta; assay: Antibacterial activity against Eggerthella lenta by CLSI M11-A6 agar dilution method; type: functional
[7] = test system: Streptococcus anginosus; assay: Antibacterial activity against Streptococcus anginosus by CLSI M11-A6 agar dilution method; type: functional
[8] = test system: Prevotella melaninogenica; assay: Antibacterial activity against Prevotella melaninogenica by CLSI M11-A6 agar dilution method; type: functional
[9] = test system: Clostridium leptum; assay: Antibacterial activity against Clostridium leptum by CLSI M11-A6 agar dilution method; type: functional
[10] = test system: Clostridium sporogenes; assay: Antibacterial activity against Clostridium sporogenes by CLSI M11-A6 agar dilution method; type: functional
[11] = test system: Paeniclostridium sordellii; assay: Antibacterial activity against Clostridium sordellii by CLSI M11-A6 agar dilution method; type: functional; settings: Paraclostridium sordellii
[12] = test system: Bacteroides thetaiotaomicron; assay: Antibacterial activity against Bacteroides thetaiotaomicron by CLSI M11-A6 agar dilution method; type: functional
[13] = test system: Collinsella aerofaciens; assay: Antibacterial activity against Colinsella aerofaciens by CLSI M11-A6 agar dilution method; type: functional
[14] = test system: Hoylesella loescheii; assay: Antibacterial activity against Prevotella loescheii by CLSI M11-A6 agar dilution method; type: functional
[15] = test system: Bilophila wadsworthia; assay: Antibacterial activity against Bilophila wadsworthia by CLSI M11-A6 agar dilution method; type: functional
[16] = test system: Clostridioides difficile; assay: Antibacterial activity against Clostridium difficile by CLSI M11-A6 agar dilution method; type: functional
[17] = test system: Prevotella intermedia; assay: Antibacterial activity against Prevotella P intermedia by CLSI M11-A6 agar dilution method; type: functional
[18] = test system: Prevotella corporis; assay: Antibacterial activity against Prevotella corporis by CLSI M11-A6 agar dilution method; type: functional
[19] = test system: Fusobacterium varium; assay: Antibacterial activity against Fusobacterium varium by CLSI M11-A6 agar dilution method; type: functional
[20] = test system: Fusobacterium mortiferum; assay: Antibacterial activity against Fusobacterium mortiferum by CLSI M11-A6 agar dilution method; type: functional
[21] = test system: Clostridium spiroforme; assay: Antibacterial activity against Clostridium spiroforme by CLSI M11-A6 agar dilution method; type: functional; settings: Thomasclavelia spiroformis
[22] = test system: Clostridium beijerinckii; assay: Antibacterial activity against Clostridium beijerinckii by CLSI M11-A6 agar dilution method; type: functional
[23] = test system: Clostridium; assay: Antibacterial activity against Clostridium hypermegas by CLSI M11-A6 agar dilution method; type: functional
[24] = test system: Bifidobacterium bifidum; assay: Antibacterial activity against Bifidobacterium bifidum by CLSI M11-A6 agar dilution method; type: functional
[25] = test system: Clostridium celerecrescens; assay: Antibacterial activity against Clostridium celerecrescens by CLSI M11-A6 agar dilution method; type: functional; settings: Lacrimispora celerecrescens
[26] = test system: Clostridium subterminale; assay: Antibacterial activity against Clostridium subterminale by CLSI M11-A6 agar dilution method; type: functional
[27] = test system: Blautia luti; assay: Antibacterial activity against Ruminococcus luti by CLSI M11-A6 agar dilution method; type: functional
[28] = test system: Clostridium perfringens; assay: Antibacterial activity against Clostridium perfringens by CLSI M11-A6 agar dilution method; type: functional
[29] = test system: [Clostridium] innocuum; assay: Antibacterial activity against Clostridium innocuum by CLSI M11-A6 agar dilution method; type: functional
[30] = test system: Prevotella nigrescens; assay: Antibacterial activity against Prevotella nigrescens by CLSI M11-A6 agar dilution method; type: functional
[31] = test system: Clostridium scindens; assay: Antibacterial activity against Clostridium scindens by CLSI M11-A6 agar dilution method; type: functional
[32] = test system: Ruminococcus sp.; assay: Antibacterial activity against Ruminococcus sp. by CLSI M11-A6 agar dilution method; type: functional
[33] = test system: Thomasclavelia ramosa; assay: Antibacterial activity against Clostridium ramosum by CLSI M11-A6 agar dilution method; type: functional
[34] = test system: Anaerococcus prevotii; assay: Antibacterial activity against Anaerococcus prevotii by CLSI M11-A6 agar dilution method; type: functional
[35] = test system: Bifidobacterium dentium; assay: Antibacterial activity against Bifidobacterium dentium by CLSI M11-A6 agar dilution method; type: functional
[36] = test system: Blautia producta; assay: Antibacterial activity against Ruminococcus productus by CLSI M11-A6 agar dilution method; type: functional
[37] = test system: Clostridium butyricum; assay: Antibacterial activity against Clostridium butyricum by CLSI M11-A6 agar dilution method; type: functional
[38] = test system: Ruminococcus obeum; assay: Antibacterial activity against Ruminococcus obeum by CLSI M11-A6 agar dilution method; type: functional; settings: Blautia obeum
[39] = test system: Clostridium sp.; assay: Antibacterial activity against Clostridium sp. by CLSI M11-A6 agar dilution method; type: functional

CC(=O)NC[C@H]1CN(c2ccc(N3CCOCC3)c(F)c2)C(=O)O1 [LINEZOLID]
4 µg/mL: MIC50 [1] | MIC90 [1] | MIC90 [5] | MIC90 [7] | MIC90 [9] | MIC90 [10] | MIC90 [11] | MIC50 [12] | MIC50 [15] | MIC90 [21] | MIC90 [22] | MIC90 [23] | MIC90 [25] | MIC50 [26] | MIC90 [26] | MIC90 [27] | MIC90 [29] | MIC90 [31] | MIC90 [36] | MIC90 [37] | MIC90 [39]
16 µg/mL: MIC90 [15] | MIC90 [16]
8 µg/mL: MIC90 [2] | MIC90 [3] | MIC90 [6] | MIC90 [12] | MIC90 [13] | MIC90 [24] | MIC50 [33] | MIC90 [33] | MIC90 [35]
2 µg/mL: MIC50 [4] | MIC90 [4] | MIC50 [5] | MIC50 [7] | MIC50 [8] | MIC90 [8] | MIC50 [9] | MIC50 [10] | MIC50 [11] | MIC50 [14] | MIC90 [14] | MIC50 [16] | MIC50 [17] | MIC90 [17] | MIC50 [18] | MIC90 [18] | MIC50 [21] | MIC50 [22] | MIC50 [23] | MIC50 [25] | MIC50 [27] | MIC50 [28] | MIC90 [28] | MIC [29] | MIC50 [29] | MIC50 [30] | MIC90 [30] | MIC50 [31] | MIC90 [32] | MIC90 [34] | MIC50 [36] | MIC50 [37] | MIC90 [38] | MIC50 [39]
1 µg/mL: MIC50 [3] | MIC50 [6] | MIC50 [13] | MIC50 [19] | MIC90 [19] | MIC50 [20] | MIC90 [20] | MIC50 [24] | MIC50 [32] | MIC50 [34] | MIC50 [35] | MIC [38] | MIC50 [38]

Cc1ncc([N+](=O)[O-])n1CCO [METRONIDAZOLE]
≤ 0.12 µg/mL: MIC50 [15] | MIC50 [19] | MIC50 [20] | MIC50 [26] | MIC50 [27] | MIC50 [36] | MIC50 [38] | MIC90 [38]
0.25 µg/mL: MIC50 [5] | MIC50 [9] | MIC50 [10] | MIC50 [11] | MIC90 [15] | MIC90 [19] | MIC90 [20] | MIC50 [21] | MIC50 [22] | MIC50 [23] | MIC50 [25] | MIC90 [26] | MIC90 [27] | MIC50 [31] | MIC90 [36] | MIC50 [37] | MIC50 [39]
0.5 µg/mL: MIC50 [4] | MIC50 [8] | MIC50 [14] | MIC50 [16] | MIC90 [16] | MIC50 [17] | MIC50 [18] | MIC50 [28] | MIC50 [29] | MIC50 [30] | MIC50 [32] | MIC50 [33] | MIC50 [34]
4 µg/mL: MIC90 [29]
2 µg/mL: MIC90 [1] | MIC90 [32] | MIC90 [34]
128 µg/mL: MIC90 [2] | MIC90 [3] | MIC90 [6] | MIC50 [7] | MIC90 [13] | MIC90 [24] | MIC90 [35]
> 128 µg/mL: MIC90 [7]
1 µg/mL: MIC50 [1] | MIC50 [2] | MIC50 [3] | MIC90 [4] | MIC90 [5] | MIC50 [6] | MIC90 [8] | MIC90 [9] | MIC90 [10] | MIC90 [11] | MIC50 [12] | MIC90 [12] | MIC50 [13] | MIC90 [14] | MIC90 [17] | MIC90 [18] | MIC90 [21] | MIC90 [22] | MIC90 [23] | MIC50 [24] | MIC90 [25] | MIC90 [28] | MIC90 [30] | MIC90 [31] | MIC90 [33] | MIC50 [35] | MIC90 [37] | MIC90 [39]
